Values after ≈ are worked out from the molar mass of the structure shown. Like-named read-outs stand apart in the source and are kept apart here.
Tests used:
E. faecium VanA = assay: MIC broth microdilution, antibiotic resistant strain panel; format: cell-based; conditions: Enterococcus faecium; multi-resistant E. faecium VanA; read-out: MIC
Experimental: (§1) Minimal Inhibitory Concentration (MIC) Determination. Bacteria (primary strain panel, TABLE 1). Susceptibility tests were performed following the recommendations from the National Committee for Clinical Standards (NCCLS). The MICs were determined by a broth microdilution technique using a final volume of 100 μl of cation-adjusted Mueller Hinton Broth (MHBCA) and a bacterial inoculum of 10^5-10^6 Colony Forming Units (CFU)/ml. The inocula were verified and precisely determined by applying 10-μl drops of 10-fold dilutions onto Triptic Soy Agar plates. The CFU were counted after an incubation of 24 h at 35° C. Any experiment showing an inoculum that was more or less than 10^5-10^6 CFU/ml was rejected. Control antibiotics and test compounds were prepared at a concentration equivalent to 2-fold the highest desired final concentration. Compounds were then diluted directly in the 96-well microtiter plates by serial 2-fold dilutions using a multichannel pipette. Microtiter plates were incubated during 24 h at 35° C. and growth was recorded by using a microtiterplate reader at 650 nm as well as by visual observation. The MIC was defined as the lowest concentration of compound yielding no visible growth. […] Fastidious bacteria. The medium used for Listeria monocytogenes, Neisseria meningitidis, and Campylobacter jejuni was MHBCA containing 2% laked horse blood. The medium used for Haemophilus influenzae and Branhamella (Moraxella) catarrhalis was HTM as recommended by the NCCLS. Cultures of these fastidious bacteria were incubated at 35° C. in a 5% CO2 atmosphere. […] The medium used for Bacteroides fragilis was Wilkins Chalgren broth and growth was allowed under an anaerobic atmosphere at 35° C. for 48 hours.
(§2) Finally, compounds were also tested against populations of various clinical strains (antibiotic resistant strain panel, TABLE 1).

[1] = system: S. epidermidis ATCC 12228; assay: MIC broth microdilution (NCCLS); format: cell-based, Staphylococcus epidermidis; conditions: Staphylococcus epidermidis, ATCC12228; S. epidermidis ATCC 12228; read-out: MIC
Experimental: as §1

Solubility in water = format: physicochemical
Experimental: Solubility of Compounds V and XV. The extent of solubility of compounds was evaluated in water.

[2] = system: L. monocytogenes ATCC 13932; assay: MIC broth microdilution (NCCLS), fastidious bacteria; format: cell-based; conditions: Listeria monocytogenes, ATCC13932, MHBCA with 2% laked horse blood, 5% CO2
Experimental: as §1

H. influenzae ATCC 49766 = assay: as above; format: cell-based; conditions: Haemophilus influenzae, ATCC49766, HTM, 5% CO2
Experimental: as §1

H. influenzae ATCC 49247 = assay: as above; format: cell-based; conditions: Haemophilus influenzae, ATCC49247, HTM, 5% CO2
Experimental: as §1

MRSA strain Sa234c = assay: MIC broth microdilution, antibiotic resistant strain panel; format: cell-based, Staphylococcus aureus; conditions: Staphylococcus aureus; multi-resistant MRSA strain Sa234c; read-out: MIC
Experimental: as §1, §2

MRSA strain Sa220c = assay: as above; format: cell-based, Staphylococcus aureus; conditions: Staphylococcus aureus; multi-resistant MRSA strain Sa220c; read-out: MIC
Experimental: as §1, §2

MRSA strain Sa249c = assay: as above; format: cell-based, Staphylococcus aureus; conditions: Staphylococcus aureus; multi-resistant MRSA strain Sa249c; read-out: MIC
Experimental: as §1, §2

MRSA strain Sa211c = assay: as above; format: cell-based, Staphylococcus aureus; conditions: Staphylococcus aureus; multi-resistant MRSA strain Sa211c; read-out: MIC
Experimental: as §1, §2

MRSA strain Sa224c = assay: as above; format: cell-based, Staphylococcus aureus; conditions: Staphylococcus aureus; multi-resistant MRSA strain Sa224c; read-out: MIC
Experimental: as §1, §2

MRSA strain Sa212c = assay: as above; format: cell-based, Staphylococcus aureus; conditions: Staphylococcus aureus; multi-resistant MRSA strain Sa212c; read-out: MIC
Experimental: as §1, §2

MRSA strain Sa248c = assay: as above; format: cell-based, Staphylococcus aureus; conditions: Staphylococcus aureus; multi-resistant MRSA strain Sa248c; read-out: MIC
Experimental: as §1, §2

MRSA strain Sa253c = assay: as above; format: cell-based, Staphylococcus aureus; conditions: Staphylococcus aureus
Experimental: as §1, §2

MRSA strain Sa228c = assay: as above; format: cell-based, Staphylococcus aureus; conditions: Staphylococcus aureus; multi-resistant MRSA strain Sa228c; read-out: MIC
Experimental: as §1, §2

S. aureus MRSA COL = assay: MIC broth microdilution (NCCLS); format: cell-based, Staphylococcus aureus; conditions: S. aureus MRSA COL
Experimental: as §1, with “hours. […]” for “hours.”

E. faecalis ATCC 29212 = assay: MIC broth microdilution (NCCLS); format: cell-based, Enterococcus faecalis; conditions: Enterococcus faecalis, ATCC29212; E. faecalis ATCC 29212; read-out: MIC
Experimental: as §1

[3] = system: S. saprophyticus ATCC 15305; assay: MIC broth microdilution (NCCLS); format: cell-based, Staphylococcus saprophyticus; conditions: Staphylococcus saprophyticus, ATCC15305; S. saprophyticus ATCC 15305; read-out: MIC
Experimental: as §1

S. aureus ATCC 29213 = assay: MIC broth microdilution (NCCLS); format: cell-based, Staphylococcus aureus; conditions: Staphylococcus aureus, ATCC29213; S. aureus ATCC 29213; read-out: MIC
Experimental: as §1

E. faecium ATCC 35667 = assay: MIC broth microdilution (NCCLS); format: cell-based, Enterococcus faecium; conditions: Enterococcus faecium, ATCC35667, E. faecium ATCC 35667; read-out: MIC
Experimental: as §1

B. catarrhalis ATCC 8176 = assay: MIC broth microdilution (NCCLS), fastidious bacteria; format: cell-based, Branhamella (Moraxella) catarrhalis; conditions: Moraxella catarrhalis, ATCC8176, HTM, 5% CO2
Experimental: as §1

B. fragilis ATCC 25285 = assay: MIC broth microdilution (NCCLS), anaerobic; format: cell-based; conditions: Bacteroides fragilis, ATCC25285; B. fragilis ATCC 25285; Wilkins Chalgren broth, anaerobic, 48 hours; read-out: MIC
Experimental: as §1

M. smegmatis ATCC 19420 = assay: MIC broth microdilution (NCCLS), fastidious bacteria; format: cell-based, Mycobacterium smegmatis; conditions: Mycolicibacterium smegmatis, ATCC19420, read after 48 hours
Experimental: as §1

E. coli ATCC 25922 [4] = assay: MIC broth microdilution (NCCLS); format: cell-based, Escherichia coli
Experimental: as §1

[5] = system: S. saprophyticus ATCC 15305; assay: Minimal Bactericidal Concentration (MBC); format: cell-based; conditions: Staphylococcus saprophyticus, ATCC15305; S. saprophyticus ATCC 15305; 99.9% killing; read-out: MBC
Experimental: (§3) Minimal Bactericidal Concentration (MBC). After the microtiter plates were read for the determination of the MIC, a 10-μl sample of each clear well (at least 5 wells without visible growth) was applied onto TSA plates for viable counts determination.
(§4) Petri dishes were incubated at 35° C. for exactly 24 h and bacterial colonies were counted.

E. coli ATCC 25922 [6] = assay: Minimal Bactericidal Concentration (MBC); format: cell-based; conditions: Escherichia coli, ATCC25922, 99.9% killing
Experimental: as §3, §4

[7] = system: Y. enterocolytica ATCC 23715; assay: MIC broth microdilution (NCCLS); format: cell-based, Yersinia enterocolytica; conditions: Yersinia, ATCC23715, read-out: MIC
Experimental: as §1

A. baumannii ATCC 19606 = assay: MIC broth microdilution (NCCLS); format: cell-based, Acinetobacter baumannii; conditions: Acinetobacter baumannii, ATCC19606, read-out: MIC
Experimental: as §1

E. coli Ec118c (EIEC) = assay: MIC broth microdilution, E. coli strains; format: cell-based; conditions: Escherichia coli, pathotype EIEC
Experimental: as §1, §2

[8] = system: E. coli ATCC 35150 (O157:H7); assay: MIC broth microdilution, E. coli strains; format: cell-based; conditions: Escherichia coli, ATCC35150
Experimental: as §1, §2

E. coli Ec022c (EIEC) = assay: MIC broth microdilution, E. coli strains; format: cell-based; conditions: Escherichia coli, pathotype EIEC
Experimental: as §1, §2

[9] = system: E. coli d25-ALR-pen14 (O157:H7); assay: MIC broth microdilution, E. coli strains; format: cell-based; conditions: Escherichia coli
Experimental: as §1, §2

E. coli Ec117c (EIEC) = assay: MIC broth microdilution, E. coli strains; format: cell-based; conditions: Escherichia coli, pathotype EIEC
Experimental: as §1, §2

[10] = system: E. coli d4-OLR-pen10 (O157:H7); assay: MIC broth microdilution, E. coli strains; format: cell-based; conditions: Escherichia coli
Experimental: as §1, §2

E. coli Ec027c (EIEC) = assay: MIC broth microdilution, E. coli strains; format: cell-based; conditions: Escherichia coli, pathotype EIEC
Experimental: as §1, §2

E. coli Ec119c (EIEC) = assay: MIC broth microdilution, E. coli strains; format: cell-based; conditions: Escherichia coli, pathotype EIEC
Experimental: as §1, §2

[11] = Staphylococcus aureus, MRSA, read-out: MIC
[12] = Escherichia coli, ATCC25922, E. coli ATCC 25922 (Reference), read-out: MIC

SMILES	MIC [1]	MIC [2]	MIC (MRSA strain Sa234c)	MIC (MRSA strain Sa220c)	MIC (MRSA strain Sa249c)	MIC (MRSA strain Sa211c)	MIC (MRSA strain Sa224c)	MIC (MRSA strain Sa212c)	MIC (MRSA strain Sa248c)	MIC (MRSA strain Sa228c)	MIC (S. aureus MRSA COL; [11])	MIC (E. faecalis ATCC 29212)	MIC [3]	MIC (S. aureus ATCC 29213)	MIC (E. faecium ATCC 35667)	MIC (B. fragilis ATCC 25285)	MIC (M. smegmatis ATCC 19420)	MIC (E. coli ATCC 25922 [4]; [12])	further results
CN1CCN(c2cc3nc(C=Cc4ccc([N+](=O)[O-])o4)nc(Nc4ccc(O)cc4)c3cc2F)CC1 [Compound XV, 7-(4-methylpiperazino)-6-fluoro-2-[2-(5-nitro-2-furyl)vinyl]-4-(p-hydroxyanilino)-quinazoline]	1 to 2 µg/mL (≈ 2.04 to 4.08 µM)	0.5 µg/mL (≈ 1.02 µM)	2 µg/mL (≈ 4.08 µM)	0.25 µg/mL (≈ 0.51 µM)	0.5 µg/mL (≈ 1.02 µM)	2 µg/mL (≈ 4.08 µM)	1 µg/mL (≈ 2.04 µM)	4 µg/mL (≈ 8.16 µM)	0.5 µg/mL (≈ 1.02 µM)	2 µg/mL (≈ 4.08 µM)	0.5 µg/mL (≈ 1.02 µM)	2 to 8 µg/mL (≈ 4.08 to 16.3 µM)	2 µg/mL (≈ 4.08 µM)	2 µg/mL (≈ 4.08 µM)	8 µg/mL (≈ 16.3 µM)	0.5 µg/mL (≈ 1.02 µM)	0.25 µg/mL (≈ 0.51 µM)		MIC (E. faecium VanA): 0.5 µg/mL (≈ 1.02 µM); solubility relative to Compound V (Solubility in water): 4 times; solubility (Solubility in water; read-out: solubility in water (no visible particles)): 1000 µg/mL (≈ 2040 µM); MIC (H. influenzae ATCC 49766): 2 µg/mL (≈ 4.08 µM); MIC (H. influenzae ATCC 49247): 2 µg/mL (≈ 4.08 µM); MIC (MRSA strain Sa253c; multi-resistant MRSA strain Sa253c, read-out: MIC): 2 µg/mL (≈ 4.08 µM); MIC (B. catarrhalis ATCC 8176): 0.5 µg/mL (≈ 1.02 µM)
CCn1cc(C(=O)O)c(=O)c2cc(F)c(N3CCNCC3)cc21 [Norfloxacin]	0.5 µg/mL (≈ 1.57 µM)	0.008 µg/mL (≈ 0.0251 µM)	> 32 µg/mL	> 32 µg/mL	32 µg/mL (≈ 100 µM)	> 32 µg/mL	> 32 µg/mL	> 32 µg/mL	32 µg/mL (≈ 100 µM)	> 32 µg/mL	0.5 to 1 µg/mL (≈ 1.57 to 3.13 µM)	4 µg/mL (≈ 12.5 µM)	2 µg/mL (≈ 6.26 µM)	1 µg/mL (≈ 3.13 µM)	16 µg/mL (≈ 50.1 µM)		2 µg/mL (≈ 6.26 µM)	0.03 µg/mL (≈ 0.0939 µM)	MIC (MRSA strain Sa253c; MRSA): > 128 µg/mL; MIC (S. aureus MRSA COL): 1 µg/mL (≈ 3.13 µM); MBC [5]: 4 µg/mL (≈ 12.5 µM); MBC (E. coli ATCC 25922 [6]): 0.06 µg/mL (≈ 0.188 µM)
CN(C)[C@@H]1C(O)=C(C(N)=O)C(=O)[C@@]2(O)C(O)=C3C(=O)c4c(O)cccc4[C@@](C)(O)[C@H]3C[C@@H]12 [Tetracycline]											2 µg/mL (≈ 4.5 µM)	16 to 32 µg/mL (≈ 36 to 72 µM)	1 µg/mL (≈ 2.25 µM)	0.5 to 1 µg/mL (≈ 1.13 to 2.25 µM)		0.25 µg/mL (≈ 0.563 µM)		1 to 2 µg/mL (≈ 2.25 to 4.5 µM)	MIC [7]: > 32 µg/mL; MIC (E. coli ATCC 25922 [4]; E. coli ATCC 25922 (Reference)): 2 µg/mL (≈ 4.5 µM); MIC (A. baumannii ATCC 19606): 16 µg/mL (≈ 36 µM); MIC (E. coli Ec118c (EIEC)): 4 µg/mL (≈ 9 µM); MIC [8]: 2 µg/mL (≈ 4.5 µM); MIC (E. coli Ec022c (EIEC)): 2 µg/mL (≈ 4.5 µM); MIC [9]: > 32 µg/mL; MIC (E. coli Ec117c (EIEC)): > 32 µg/mL; MIC [10]: > 32 µg/mL; MIC (E. coli Ec027c (EIEC)): > 32 µg/mL; MIC (E. coli Ec119c (EIEC)): > 32 µg/mL

— patent US7410974B2, “Halogenated Quinazolinyl nitrofurans as antibacterial agents” (Ulysses Pharmaceutical Products, Inc., priority 2003, dated 2008)
